# From patent US9107853B2, “Compositions containing phenolic compounds and hydrotropes for cosmetic use” (L'Oreal S.A., priority 2012, dated 2015)
# Columns and labels:
# Assay type in all cases: physicochemical
# [1] = Solubility in water, with or without hydrotropes, at room temperature
# [2] = Solubility in organic solvent PEG-4
# Description: (§1) Crystallization or precipitation occurs after mixing the glycol phase and water phase.
# [3] = Stability of solutions (pH, dilution in water)
# Description: as §1
# The solubility of baicalin can be increased by raising the concentration of hydrotropes.
structure (smiles),measurement,setting,value
O=C(O)[C@H]1O[C@@H](Oc2cc3oc(-c4ccccc4)cc(=O)c3c(O)c2O)[C@H](O)[C@@H](O)[C@@H]1O [Baicalin],water solubility,[1],< 0.01%
same,amount dissolved by PEG-4,[2],3%
same,degradation as a function of pH,[3]; aqueous,degradation happens at pH>5
same,stability of solution after dilution in water,[3]; hydrotrope solution diluted in water,still stable if diluted in water
same,stability of solution after dilution in water,"[3]; solution in organic solvent such as PEG-4, diluted in water",not stable any more
